Converted amounts (≈) assume the structure as drawn. Like-named read-outs stand apart in the source and are kept apart here.
How the values were obtained:
M. tuberculosis = test: MIC against M. tuberculosis, microplate Alamar Blue assay (MABA); assay type: cell-based, Mycobacterium tuberculosis; parameters: MIC90: unit not given beside the values; conditions: for MIC90: MABA, Table 3, unit not given
Method: MICs against M. tuberculosis. The MIC was defined as the minimum concentration of the compound required to achieve a reduction in fluorescence by 90% relative to the untreated bacterial controls. The anti-TB activity was determined by the microplate Alamar Blue assay (MABA) as previously described (Choules et al., Antimicrob. Agents Chemother. 2019, 63, e02204-02218).

Mycobacterial ClpC1-NTD = target: T1, Mycobacterial ClpC1-NTD (Mycobacterium tuberculosis, UniProt P9WPC9); test: SPR binding affinity to ClpC1-NTD
T1 construct: caseinolytic protein C1 (ClpC1) N-terminal domain (NTD)
Method: (§1) Analysis of binding affinity to Mycobacterial ClpC1-NTD and FL by SPR. SPR binding assay was performed using a previously reported method (Choules et al., Antimicrob. Agents Chemother. 2019, 63, e02204-02218; Wolf et al., ACS Infect. Dis. 2019, 5, 829-840). Kinetic rate constants (ka and kd) were determined by fitting the double-reference data globally to the 1:1 Langmuir model embedded in the Biacore T200 evaluation software (v3.0). KD values were then calculated from the two rate constants (KD=kd/ka). Smaller KD values represent tighter binding affinities.

Mycobacterial ClpC1 FL = target: T2, Mycobacterial ClpC1 FL (Mycobacterium tuberculosis, UniProt P9WPC9); test: SPR binding affinity to ClpC1 full-length protein (FL)
T2 construct: N-terminal domain (NTD) and the full-length protein (FL) by surface plasmon resonance (SPR)
T2 sequence (P9WPC9 whole entry, the tested form may be a part): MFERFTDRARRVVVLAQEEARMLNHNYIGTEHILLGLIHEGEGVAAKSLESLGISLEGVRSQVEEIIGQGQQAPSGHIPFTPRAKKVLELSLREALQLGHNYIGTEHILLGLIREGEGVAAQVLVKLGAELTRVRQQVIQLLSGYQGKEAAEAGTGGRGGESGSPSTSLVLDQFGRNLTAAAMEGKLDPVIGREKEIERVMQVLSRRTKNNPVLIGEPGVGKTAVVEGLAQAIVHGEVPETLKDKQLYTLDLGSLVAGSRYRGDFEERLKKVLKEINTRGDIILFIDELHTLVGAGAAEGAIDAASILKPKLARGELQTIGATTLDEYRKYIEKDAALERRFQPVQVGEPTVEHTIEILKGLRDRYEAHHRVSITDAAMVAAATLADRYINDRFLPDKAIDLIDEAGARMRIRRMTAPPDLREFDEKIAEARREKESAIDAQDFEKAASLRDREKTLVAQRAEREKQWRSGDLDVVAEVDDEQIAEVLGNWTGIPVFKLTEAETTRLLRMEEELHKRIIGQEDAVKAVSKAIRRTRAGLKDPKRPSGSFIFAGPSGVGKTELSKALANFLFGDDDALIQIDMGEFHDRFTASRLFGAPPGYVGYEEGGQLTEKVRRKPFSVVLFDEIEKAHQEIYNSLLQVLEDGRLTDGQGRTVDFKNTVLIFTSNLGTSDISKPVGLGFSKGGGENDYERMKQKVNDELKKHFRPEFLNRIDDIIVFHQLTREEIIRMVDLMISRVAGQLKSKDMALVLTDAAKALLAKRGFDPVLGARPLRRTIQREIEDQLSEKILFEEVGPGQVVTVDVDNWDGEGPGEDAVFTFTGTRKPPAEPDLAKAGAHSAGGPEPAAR
Method: as §1

[1] = Interconversion (epimerization) of rufomycin diastereomers, HPLC analysis; assay type: physicochemical; conditions: HPLC analysis; hemi-aminal epimers
Excerpt: The rufomycins 32-35 were identified as four diastereomers, arising from different orientations of the hydroxyl and methyl groups in the hydroxy-methyl piperidinone moiety. Rufomycin 32 was assigned the (AA5, 4S,5R) absolute configuration based on the ROESY correlations, and further confirmed by the cocrystal structures of rufomycin 32 and ClpC1-NTD. Thus, rufomycin 32 is that congener previously identified as ilamycin, Compound 4, and ilamycin C1 (PCT/US2000/015044). […] The assigned 4S,5S (AA5) absolute configuration for rufomycin 33 was validated by the ROESY correlations. Rufomycin 34 with the absolute configuration 4R,5R (AA5) was established by the ROESY cross-peaks. […] After being purified by semi-prep HPLC, rufomycin 35 was concentrated under a stream of forced air and freeze drying to reduce interconversion.

[2] = ClpC1 N-terminal domain, KD=kd/ka, Table 1, read-out: SPR KD NTD
[3] = ClpC1 full-length protein, KD=kd/ka, Table 1, read-out: SPR KD FL

## C/C=C/C[C@@H]1NC(=O)[C@H](CC(C)C)N2C=C(C)C[C@@H](C2=O)N(C)C(=O)[C@H](C)NC(=O)[C@H](Cc2ccc(O)c([N+](=O)[O-])c2)NC(=O)[C@H](CC(C)C)N(C)C(=O)[C@H](Cc2cn(C(C)(C)[C@H](O)CCl)c3ccccc23)NC1=O [Compound 3]
M. tuberculosis; Mycobacterium tuberculosis
  MIC: 0.0188 ± 0.004 µM (≈ 0.0199 µg/mL)
Mycobacterial ClpC1-NTD; [2]
  Kd: 82.3 nM
Mycobacterial ClpC1 FL; [3]
  Kd: 97.1 nM

## C/C=C/C[C@@H]1NC(=O)[C@H](CC(C)C)N2C(=O)[C@H](CC(C)[C@H]2OC)N(C)C(=O)[C@H](C)NC(=O)[C@H](Cc2ccc(O)c([N+](=O)[O-])c2)NC(=O)[C@H](CC(C)C)N(C)C(=O)[C@H](Cc2cn(C(C)(C)[C@H](O)COC)c3ccccc23)NC1=O (stereo partly shown) [Compound 4]
M. tuberculosis; Mycobacterium tuberculosis
  MIC: 0.0064 ± 0.0018 µM (≈ 0.00697 µg/mL)
Mycobacterial ClpC1-NTD; [2]
  Kd: 88.5 nM
Mycobacterial ClpC1 FL; [3]
  Kd: 79.9 nM

## C/C=C/C[C@@H]1NC(=O)[C@H](CC(C)C)N2C(=O)[C@H](CC(C)[C@H]2OC)N(C)C(=O)[C@H](C)NC(=O)[C@H](Cc2ccc(O)c([N+](=O)[O-])c2)NC(=O)[C@H](CC(C)C)N(C)C(=O)[C@H](Cc2cn(C(C)(C)[C@H](O)CCl)c3ccccc23)NC1=O (stereo partly shown) [Compound 5]
Mycobacterial ClpC1-NTD; [2]
  Kd: 123 nM
Mycobacterial ClpC1 FL; [3]
  Kd: 163 nM

## C/C=C/C[C@@H]1NC(=O)[C@H](CC(C)C)N2C(=O)[C@H](CC(C)[C@H]2OC)N(C)C(=O)[C@H](C)NC(=O)[C@H](Cc2ccc(O)c([N+](=O)[O-])c2)NC(=O)[C@H](CC(C)C)N(C)C(=O)[C@H](Cc2cn(C(C)(C)[C@H]3CO3)c3ccccc23)NC1=O (stereo partly shown) [Compound 6]
M. tuberculosis; MIC ratio, in words
  increase in activity compared to rufomycin analogues 1 and 2: ten-fold increase in activity
M. tuberculosis; text summary of Table 1, unit not given
  MIC: 1.9
Mycobacterial ClpC1-NTD; [2]
  Kd: 103 nM
Mycobacterial ClpC1 FL; [3]
  Kd: 31.7 nM

## C/C=C/C[C@@H]1NC(=O)[C@H](CC(C)C)N2C(=O)[C@H](CC(C)[C@H]2O)N(C)C(=O)[C@H](C)NC(=O)[C@H](Cc2ccc(O)c([N+](=O)[O-])c2)NC(=O)[C@H](CC(C)C)N(C)C(=O)[C@H](Cc2cn(C(C)(C)[C@H](O)CCl)c3ccccc23)NC1=O (stereo partly shown) [Compound 7]
M. tuberculosis; Mycobacterium tuberculosis
  MIC: 0.0464 ± 0.0046 µM (≈ 0.0501 µg/mL)
Mycobacterial ClpC1-NTD; [2]
  Kd: 114 nM
Mycobacterial ClpC1 FL; [3]
  Kd: 116 nM

## C/C=C/C[C@@H]1NC(=O)[C@H](CC(C)C)N2C(=O)[C@H](CC(C)[C@H]2OCC)N(C)C(=O)[C@H](C)NC(=O)[C@H](Cc2ccc(O)c([N+](=O)[O-])c2)NC(=O)[C@H](CC(C)C)N(C)C(=O)[C@H](Cc2cn(C(C)(C)[C@H](O)CCl)c3ccccc23)NC1=O (stereo partly shown) [Compound 8]
M. tuberculosis; Mycobacterium tuberculosis
  MIC: 0.244 ± 0.0271 µM (≈ 0.27 µg/mL)
Mycobacterial ClpC1-NTD; [2]
  Kd: 120 nM
Mycobacterial ClpC1 FL; [3]
  Kd: 142 nM

## C/C=C/C[C@@H]1NC(=O)[C@H](CC(C)C)N2C(=O)[C@H](CC(C)[C@H]2OCCC)N(C)C(=O)[C@H](C)NC(=O)[C@H](Cc2ccc(O)c([N+](=O)[O-])c2)NC(=O)[C@H](CC(C)C)N(C)C(=O)[C@H](Cc2cn(C(C)(C)[C@H](O)CCl)c3ccccc23)NC1=O (stereo partly shown) [Compound 10]
M. tuberculosis; Mycobacterium tuberculosis
  MIC: 0.75 ± 0.0107 µM (≈ 0.84 µg/mL)
Mycobacterial ClpC1-NTD; [2]
  Kd: 90.7 nM
Mycobacterial ClpC1 FL; [3]
  Kd: 143 nM

## C/C=C/C[C@@H]1NC(=O)[C@H](CC(C)C)N2C=C(C)C[C@@H](C2=O)N(C)C(=O)[C@H](C)NC(=O)[C@H](Cc2ccc(OC(C)=O)c([N+](=O)[O-])c2)NC(=O)[C@H](CC(C)C)N(C)C(=O)[C@H](Cc2cn(C(C)(C)[C@H](O)CCl)c3ccccc23)NC1=O [Compound 15]
M. tuberculosis; Mycobacterium tuberculosis
  MIC: 0.0224 µM (≈ 0.0247 µg/mL)
Mycobacterial ClpC1-NTD; [2]
  Kd: 317 nM
Mycobacterial ClpC1 FL; [3]
  Kd: 513 nM

## C/C=C/C[C@@H]1NC(=O)[C@H](CC(C)C)N2C=C(C)C[C@@H](C2=O)N(C)C(=O)[C@H](C)NC(=O)[C@H](Cc2ccc(OC)c([N+](=O)[O-])c2)NC(=O)[C@H](CC(C)C)N(C)C(=O)[C@H](Cc2cn(C(C)(C)[C@H]3CO3)c3ccccc23)NC1=O [Compound 16]
M. tuberculosis; Mycobacterium tuberculosis
  MIC: 0.0726 µM (≈ 0.0754 µg/mL)
Mycobacterial ClpC1-NTD; [2]
  Kd: 580 nM
Mycobacterial ClpC1 FL; [3]
  Kd: 883 nM

## C/C=C/C[C@@H]1NC(=O)[C@H](CC(C)C)N2C=C(C)C[C@@H](C2=O)N(C)C(=O)[C@H](C)NC(=O)[C@H](Cc2ccc(OC(=O)c3ccccc3)c([N+](=O)[O-])c2)NC(=O)[C@H](CC(C)C)N(C)C(=O)[C@H](Cc2cn(C(C)(C)[C@H](O)CCl)c3ccccc23)NC1=O [Compound 17]
M. tuberculosis; Mycobacterium tuberculosis
  MIC: 0.0529 µM (≈ 0.0616 µg/mL)
Mycobacterial ClpC1-NTD
  Kd: 1250 nM
Mycobacterial ClpC1 FL
  Kd: 2030 nM

## C/C=C/C[C@@H]1NC(=O)[C@H](CC(C)C)N2C=C(C)C[C@@H](C2=O)N(C)C(=O)[C@H](C)NC(=O)[C@H](Cc2ccc(O)c(N)c2)NC(=O)[C@H](CC(C)C)N(C)C(=O)[C@H](Cc2cn(C(C)(C)[C@H](O)CCl)c3ccccc23)NC1=O [Compound 19]
M. tuberculosis; Mycobacterium tuberculosis
  MIC: 0.887 µM (≈ 0.914 µg/mL)
Mycobacterial ClpC1-NTD; [2]
  Kd: 501 nM
Mycobacterial ClpC1 FL; [3]
  Kd: 319 nM

## C/C=C/C[C@@H]1NC(=O)[C@H](CC(C)C)N2C=C(C)C[C@@H](C2=O)N(C)C(=O)[C@H](C)NC(=O)[C@H](Cc2ccc3c(c2)N=C(C)CC(C)(C)O3)NC(=O)[C@H](CC(C)C)N(C)C(=O)[C@H](Cc2cn(C(C)(C)[C@H](O)CCl)c3ccccc23)NC1=O [Compound 20]
M. tuberculosis; Mycobacterium tuberculosis
  MIC: 0.782 µM (≈ 0.869 µg/mL)
Mycobacterial ClpC1-NTD; [2]
  Kd: 196 nM
Mycobacterial ClpC1 FL; [3]
  Kd: 234 nM

## C/C=C/C[C@@H]1NC(=O)[C@H](CC(C)C)N2C(=O)[C@H](CC(C)[C@H]2OC)N(C)C(=O)[C@H](C)NC(=O)[C@H](Cc2ccc(OC)c([N+](=O)[O-])c2)NC(=O)[C@H](CC(C)C)N(C)C(=O)[C@H](Cc2cn(C(C)(C)[C@H]3CO3)c3ccccc23)N(C)C1=O (stereo partly shown) [Compound 24]
M. tuberculosis; Mycobacterium tuberculosis
  MIC: 0.0646 µM (≈ 0.07 µg/mL)
Mycobacterial ClpC1-NTD; [2]
  Kd: 451 nM
Mycobacterial ClpC1 FL; [3]
  Kd: 513 nM

## C/C=C/C[C@@H]1NC(=O)[C@H](CC(C)C)N2C(=O)[C@H](CC(C)[C@H]2O)N(C)C(=O)[C@H](C)NC(=O)[C@H](Cc2ccc(OC(C)=O)c([N+](=O)[O-])c2)NC(=O)[C@H](CC(C)C)N(C)C(=O)[C@H](Cc2cn(C(C)(C)[C@H]3CO3)c3ccccc23)NC1=O (stereo partly shown) [Compound 25]
M. tuberculosis; Mycobacterium tuberculosis
  MIC: 0.0184 ± 0.006 µM (≈ 0.02 µg/mL)
Mycobacterial ClpC1-NTD; [2]
  Kd: 56 nM
Mycobacterial ClpC1 FL; [3]
  Kd: 72.5 nM

## C/C=C/C[C@@H]1NC(=O)[C@H](CC(C)C)N2C(=O)[C@H](CC(C)[C@H]2OC(C)=O)N(C)C(=O)[C@H](C)NC(=O)[C@H](Cc2ccc(OC(C)=O)c([N+](=O)[O-])c2)NC(=O)[C@H](CC(C)C)N(C)C(=O)[C@H](Cc2cn(C(C)(C)[C@H]3CO3)c3ccccc23)NC1=O (stereo partly shown) [Compound 26]
M. tuberculosis; Mycobacterium tuberculosis
  MIC: 0.0089 ± 0.0036 µM (≈ 0.01 µg/mL)
Mycobacterial ClpC1-NTD; [2]
  Kd: 33.8 nM
Mycobacterial ClpC1 FL; [3]
  Kd: 16 nM

## C/C=C/C[C@@H]1NC(=O)[C@H](CC(C)C)N2C(=O)[C@H](CC(C)[C@H]2O)N(C)C(=O)[C@H](C)NC(=O)[C@H](Cc2ccc(OC)c([N+](=O)[O-])c2)NC(=O)[C@H](CC(C)C)N(C)C(=O)[C@H](Cc2cn(C(C)(C)[C@H]3CO3)c3ccccc23)NC1=O (stereo partly shown) [Compound 29]
M. tuberculosis; Mycobacterium tuberculosis
  MIC: 0.0543 µM (≈ 0.0574 µg/mL)
Mycobacterial ClpC1-NTD; [2]
  Kd: 117 nM
Mycobacterial ClpC1 FL; [3]
  Kd: 133 nM

## C/C=C/C[C@@H]1NC(=O)[C@H](CC(C)C)N2C(=O)[C@H](CC(C)[C@H]2OC)N(C)C(=O)[C@H](C)NC(=O)[C@H](Cc2ccc(OC)c([N+](=O)[O-])c2)NC(=O)[C@H](CC(C)C)N(C)C(=O)[C@H](Cc2cn(C(C)(C)[C@H]3CO3)c3ccccc23)NC1=O (stereo partly shown) [Compound 30]
M. tuberculosis; Mycobacterium tuberculosis
  MIC: 0.0058 µM (≈ 0.00621 µg/mL)
Mycobacterial ClpC1-NTD; [2]
  Kd: 55.5 nM
Mycobacterial ClpC1 FL; [3]
  Kd: 75.1 nM

## NNC(=O)c1ccncc1 [INH, isoniazid, reference compound]
M. tuberculosis
  MIC90: 463

## CO[C@H]1/C=C/O[C@@]2(C)Oc3c(C)c(O)c4c(O)c(c(/C=N/N5CCN(C)CC5)c(O)c4c3C2=O)NC(=O)/C(C)=C\C=C\[C@H](C)[C@H](O)[C@@H](C)[C@@H](O)[C@@H](C)[C@H](OC(C)=O)[C@@H]1C [RMP, rifampin, reference compound]
M. tuberculosis
  MIC90: 28

## C/C=C/C[C@@H]1NC(=O)[C@H](CC(C)C)N2C(=O)[C@H](C[C@H](C)[C@H]2O)N(C)C(=O)[C@H](C)NC(=O)[C@H](Cc2ccc(O)c([N+](=O)[O-])c2)NC(=O)[C@H](CC(C)C)N(C)C(=O)[C@H](Cc2cn(C(C)(C)[C@H]3CO3)c3ccccc23)NC1=O [rufomycin 32]
M. tuberculosis
  MIC90: 21
M. tuberculosis; MIC data of Table 3
  anti-M.tb potency relative to rifampin and isoniazid (in words): higher potency than drugs rifampin and isoniazid
Mycobacterial ClpC1-NTD; SPR, ClpC1 N-terminal domain, Table 3, unit inferred, read-out: KD NTD
  Kd: 32 nM
Mycobacterial ClpC1 FL; SPR, ClpC1 full-length protein, Table 3, unit inferred, read-out: KD FL
  Kd: 31 nM
[1]
  interconversion / stability of diastereomers (in words): interconvertible
